Experimental data reported in PubChem BioAssay (NCI).
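1) Cells in 96-well plates. 2) Compound, 48 h, 5 concentrations. 3) Linear interpolation between surrounding doses. 4) Unreached endpoint = highest concentration. GI50 is the concentration that inhibits growth by half. Definition used: TGI = concentration required for complete inhibition of growth.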

Tests used:
Experiment in all cases: inhibition of tumour cell growth, NCI panel, 48 h
A498 renal = test system: A498 renal
COLO 205 colon = test system: COLO 205 colon
HL-60(TB) leukemia = test system: HL-60(TB) leukemia
OVCAR-3 ovarian = test system: OVCAR-3 ovarian
SF-539 CNS = test system: SF-539 CNS
SK-MEL-28 melanoma = test system: SK-MEL-28 melanoma
SN12C renal = test system: SN12C renal
SNB-19 CNS = test system: SNB-19 CNS
SW-620 colon = test system: SW-620 colon
TK-10 renal = test system: TK-10 renal

SMILES	GI50 (A498 renal) [µM]	TGI (A498 renal) [µM]	GI50 (COLO 205 colon) [µM]	TGI (COLO 205 colon) [µM]	GI50 (HL-60(TB) leukemia) [µM]	TGI (HL-60(TB) leukemia) [µM]	GI50 (OVCAR-3 ovarian) [µM]	TGI (OVCAR-3 ovarian) [µM]	GI50 (SF-539 CNS) [µM]	TGI (SF-539 CNS) [µM]	GI50 (SK-MEL-28 melanoma) [µM]	TGI (SK-MEL-28 melanoma) [µM]	GI50 (SN12C renal) [µM]	TGI (SN12C renal) [µM]	GI50 (SNB-19 CNS) [µM]	TGI (SNB-19 CNS) [µM]	GI50 (SW-620 colon) [µM]	TGI (SW-620 colon) [µM]	GI50 (TK-10 renal) [µM]	TGI (TK-10 renal) [µM]
Nc1ccccc1C#C/C=C\C#Cc1ccccc1C(F)(F)F	2.55	16.9	1.92	> 37.2	1.04	> 27.7	0.673	1.89	0.669	3.55	18.2	> 100	0.399	9.45	10.5	58.7	1.5	41	8.3	27.9
CC1=C([Se]CC(OC(=O)CC[Se]c2ccccc2)C(=O)NCCCCCC(=O)OCc2ccccc2)C(=O)c2ccccc2C1=O (stereo not given)	2.25	8.48	2.15	3.93	2.75	8.25	1.83	4.71	2.36	6.03	2.98	7.76	3.25	14.3	2.72	11	3.28	11.6	4.47	12.4
CC(C)N(C(=O)C12C3C4C5(C#N)C3C1(I)C5C42I)C(C)C (stereo not given)		> 100		> 58.9		> 63.6		> 100		> 100		> 100		> 100		> 100		> 53.1		> 100
COC(=O)C1CC(C(=O)OC)c2nc3cc(C)ccc3nc21 (stereo not given)		> 100		> 100		> 100		> 100		> 100		> 100		> 100		> 100		> 100		> 100
OCc1cn(Cc2cccc(Cl)c2)c2ccccc12	0.0142	0.0305	0.432	20.3	5.38	21.1	0.128	1.1	13.5	30.9	20.5	60.9	12	42.6	22.5	> 96.5	0.586	33.3	< 0.0145	0.21
OC1(C(O)(c2ccc(-c3ccccc3)cc2)c2ccc(-c3ccccc3)cc2)CCCCC1		> 100		> 100		> 100		> 100		> 100		> 100		> 100		> 100		> 100		> 100
CC(C)(C)N1CCC1C(N)=O (stereo not given)	> 100	> 100	> 100	> 100	> 100	> 100	> 100	> 100	> 100	> 100	> 100	> 100	> 100	> 100	> 100	> 100	> 100	> 100	> 100	> 100
CC(=O)OC[C@H]1O[C@@H](n2ccc(=O)[nH]c2=O)[C@H](OC(C)=O)[C@@H]1OC(C)=O	> 100	> 100	> 100	> 100	> 100	> 100	> 100	> 100	> 100	> 100	> 100	> 100	> 100	> 100	> 100	> 100	> 100	> 100	> 100	> 100
CC1=C(/C=C/C(C)=C\C=C\C(C)=C\C(=O)Nc2ccc3c(c2)OCO3)C(C)(C)CCC1	> 100	> 100	37.8	> 100	1.65	18	> 100	> 100	51.3	> 100	> 100	> 100	> 100	> 100	> 100	> 100	> 100	> 100	> 100	> 100
C/C(=N/S(=O)(=O)c1ccc(Cl)c(Cl)c1)OCC(C)(C)C		> 100		> 100		> 100		> 100		> 100		> 100		> 100		> 100		> 100		> 100
CC(CN(CP(=O)([O-])[O-])CP(=O)([O-])[O-])N(CP(=O)([O-])[O-])CP(=O)([O-])[O-].N.N.[Pt+2] (stereo not given)	> 100	> 100	> 100	> 100	> 100	> 100	> 100	> 100	> 100	> 100	> 100	> 100	> 100	> 100	> 100	> 100	> 100	> 100	> 100	> 100
CN(C)CCCn1c2c(c3cnccc3c1=O)C(=O)c1ccccc1-2	1.17	5.95	0.269	3.66	0.514	4.65	1.1	5.47	0.377	2.9	0.508	2.59	0.289	4.35	0.362	3.96	0.209	10.9	0.721	27.6
